Test results from ChEMBL document CHEMBL4049443, “Discovery of 2-[[2-Ethyl-6-[4-[2-(3-hydroxyazetidin-1-yl)-2-oxoethyl]piperazin-1-yl]-8-methylimidazo[1,2-a]pyridin-3-yl]methylamino]-4-(4-fluorophenyl)thiazole-5-carbonitrile (GLPG1690), a First-in-Class Autotaxin Inhibitor Undergoing Clinical Evaluation for the Treatment of Idiopathic Pulmonary …” (J Med Chem, 2017).

What was measured:
[1] = Oral bioavailability in rat at 5 mg/kg; assay type: ADME, organism-based; details: in vivo
Autotaxin [2] = target: Autotaxin (Homo sapiens, UniProt Q13822); assay: Inhibition of human ATX using LPC (16:0) as substrate after 30 mins by horseradish peroxidase/choline oxidase coupled enzyme based spectrophotometric analysis
[3] = Plasma clearance in rat at 1 mg/kg, iv; assay type: ADME, organism-based
[4] = Plasma clearance in mouse at 1 mg/kg, iv; assay type: ADME, organism-based
[5] = Oral bioavailability in mouse at 5 mg/kg; assay type: ADME, organism-based; details: in vivo
[6] = target: Voltage-gated inwardly rectifying potassium channel KCNH2 (Homo sapiens, UniProt Q12809); assay: Inhibition of human ERG by automated patch clamp assay
Voltage-gated inwardly rectifying potassium channel KCNH2, sequence (Q12809 whole entry): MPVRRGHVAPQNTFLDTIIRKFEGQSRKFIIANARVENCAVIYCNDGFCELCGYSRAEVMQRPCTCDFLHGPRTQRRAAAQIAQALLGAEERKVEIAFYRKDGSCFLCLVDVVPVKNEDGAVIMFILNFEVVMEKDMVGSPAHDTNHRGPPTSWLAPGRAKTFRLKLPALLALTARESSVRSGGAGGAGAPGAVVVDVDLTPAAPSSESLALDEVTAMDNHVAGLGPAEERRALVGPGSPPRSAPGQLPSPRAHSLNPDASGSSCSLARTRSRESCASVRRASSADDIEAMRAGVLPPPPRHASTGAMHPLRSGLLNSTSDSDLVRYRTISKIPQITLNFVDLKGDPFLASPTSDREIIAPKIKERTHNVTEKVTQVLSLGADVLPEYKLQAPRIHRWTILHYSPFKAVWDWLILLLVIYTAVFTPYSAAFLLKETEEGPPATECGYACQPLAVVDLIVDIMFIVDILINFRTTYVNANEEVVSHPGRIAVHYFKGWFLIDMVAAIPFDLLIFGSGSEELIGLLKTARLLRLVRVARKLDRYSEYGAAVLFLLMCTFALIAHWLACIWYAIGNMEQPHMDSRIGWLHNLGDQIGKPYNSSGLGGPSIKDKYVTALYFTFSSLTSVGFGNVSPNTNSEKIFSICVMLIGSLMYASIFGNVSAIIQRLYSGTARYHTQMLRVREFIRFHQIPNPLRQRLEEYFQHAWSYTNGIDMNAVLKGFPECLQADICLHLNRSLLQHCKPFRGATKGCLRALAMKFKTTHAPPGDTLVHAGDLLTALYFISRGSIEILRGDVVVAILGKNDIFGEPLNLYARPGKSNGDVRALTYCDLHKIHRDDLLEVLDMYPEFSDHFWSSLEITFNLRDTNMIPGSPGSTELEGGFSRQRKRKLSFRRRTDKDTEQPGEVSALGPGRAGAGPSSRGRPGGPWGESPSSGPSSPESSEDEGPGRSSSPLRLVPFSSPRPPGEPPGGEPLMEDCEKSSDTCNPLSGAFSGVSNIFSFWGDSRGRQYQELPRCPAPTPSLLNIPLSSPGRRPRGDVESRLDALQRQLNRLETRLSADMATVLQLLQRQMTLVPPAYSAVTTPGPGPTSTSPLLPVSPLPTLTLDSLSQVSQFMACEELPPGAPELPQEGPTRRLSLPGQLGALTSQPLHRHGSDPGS

Cytochrome P450 3A4 = Cytochrome P450 3A4 (Homo sapiens, UniProt P08684); assay: Time-dependent inhibition of human liver microsomes CYP3A4; assay type: ADME
Cytochrome P450 3A4, sequence (P08684 whole entry): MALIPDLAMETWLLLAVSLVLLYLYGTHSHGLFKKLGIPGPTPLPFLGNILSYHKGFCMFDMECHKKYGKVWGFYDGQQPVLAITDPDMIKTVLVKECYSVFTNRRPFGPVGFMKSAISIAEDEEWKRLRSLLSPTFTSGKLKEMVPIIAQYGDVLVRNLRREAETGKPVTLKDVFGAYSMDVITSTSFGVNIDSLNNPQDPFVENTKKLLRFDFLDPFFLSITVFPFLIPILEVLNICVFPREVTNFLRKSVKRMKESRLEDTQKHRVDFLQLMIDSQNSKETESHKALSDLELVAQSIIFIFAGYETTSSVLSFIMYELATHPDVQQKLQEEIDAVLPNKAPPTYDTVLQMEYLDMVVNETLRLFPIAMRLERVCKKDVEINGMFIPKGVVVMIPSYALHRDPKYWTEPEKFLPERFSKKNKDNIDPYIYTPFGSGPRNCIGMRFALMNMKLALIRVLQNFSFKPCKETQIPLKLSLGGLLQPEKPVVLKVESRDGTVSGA

Autotaxin [7] = target: Autotaxin (Rattus norvegicus, UniProt Q64610); assay: Inhibition of ATX in rat plasma assessed as reduction in LPA 18:2 production after 2 hrs by LC-MS/MS analysis
[8] = Chemical stability of the compound in DMSO by LC-MS analysis; assay type: physicochemical
[9] = Chemical stability of the compound in DMSO by 1H NMR analysis; assay type: physicochemical

| Compound | bioavailability [1] | IC50 (Autotaxin [2]) | clearance [3] | clearance [4] | bioavailability [5] | TDI (Cytochrome P450 3A4) | IC50 (Autotaxin [7]) | Stability [8] | Stability [9] | IC50 [6] |
| --- | --- | --- | --- | --- | --- | --- | --- | --- | --- | --- |
| CCc1nc2ccc(C3CCN(CC(=O)N4CC(O)C4)CC3)cn2c1N(C)c1nc(-c2ccc(F)cc2)cs1 | – | 246 nM | – | – | – | Active | – | – | – | – |
| CCc1nc2ccc(C3CCN(CC(=O)N4CC(O)C4)CC3)nn2c1N(C)c1nc(-c2ccc(F)cc2C#N)ns1 | – | 297 nM | – | – | – | Active | – | – | – | – |
| CCc1nc2cc(C)c(C3CCN(CC(=O)N4CC(O)C4)CC3)cn2c1N(C)c1nc(-c2ccc(F)cc2)cs1 | – | 811 nM | – | – | – | Not Active | – | – | – | – |
| CCc1nc2cnc(N3CCN(CC(=O)N4CC(O)C4)CC3)cn2c1N(C)c1nc(-c2ccc(F)cc2)c(C#N)s1 | – | 102 nM | – | – | – | Not Active | – | Unstable | Unstable | – |

Now those with a lower IC50 (Autotaxin [2]), led by results:

| bioavailability [1] | IC50 (Autotaxin [2]) | clearance [3] | clearance [4] | bioavailability [5] | TDI (Cytochrome P450 3A4) | IC50 (Autotaxin [7]) | Stability [8] | Stability [9] | Compound | IC50 [6] |
| --- | --- | --- | --- | --- | --- | --- | --- | --- | --- | --- |
| 15% | 27 nM | 51.7 mL/min/kg | 20 mL/min/kg | 12% | Active | 22 nM | – | – | CCc1nc2ccc(C3CCN(CC(=O)N4CC(O)C4)CC3)cn2c1N(C)c1nc(-c2ccc(F)cc2)c(C#N)s1 | 2900 nM |
| – | 26 nM | – | – | – | Active | – | – | – | CCc1nc2ccc(N3CCN(CC(=O)N4CC(O)C4)CC3)cn2c1N(C)c1nc(-c2ccc(F)cc2)c(C#N)s1 | > 11000 nM |
